Experimental data taken from US20240376094A2, “SELECTIVE BCL-XL PROTAC COMPOUNDS AND METHODS OF USE” (Les Laboratoires Servier, priority 2021, published 2024).

Tests used:
Type in all cases: cell-based
[1] = test system: EBC-1 lung cancer cell line; experiment: EBC-1 cell proliferation, CellTiter-Glo assay; details: Homo sapiens, 120 h; Ebc-1 cell viability, CTG assay, 5 days of treatment; read-out: CTG 5 day Ebc1 GI50
How it was run: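 EBC-1 cells seeded at 1000 per well overnight, then exposed to 10-point dilutions (0.508 nM–10 μM final) for 5 days at 37 °C, in triplicate. ATP luminescence by CellTiter-Glo, normalised to untreated wells; GI50 from four-parameter logistic fit, runs valid only with at least one doubling.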

MOLT-4 cells = experiment: MOLT-4 cell viability, CTG assay; details: Homo sapiens, MOLT-4, 48 h
How it was run: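 Cells grown in RPMI 1640 with 10% FBS at 37° C, 5% CO2, then exposed to compounds for 48 h (11-point 5-fold dilution, triplicates). ATP measured by CellTiter-Glo luminescence; IC50 from four-parameter fit versus control, mean of ≥2 independent experiments.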

HiBiT-tagged BCL-xL = target: T1, HiBiT-tagged BCL-xL (Homo sapiens, UniProt Q07817); experiment: NCI-H1650 BCL-xL protein levels, Nano-Glo HiBiT Lytic Detection; details: NCI-H1650 expressing HiBiT-tagged BCL-xL, overnight incubation, read-out: Bcl-xl HIBIT NCIH1650 DC50
T1 construct: expressed in transfected cells; host or cells: NCI-H1650 (ATCC No. CRL-5883), engineered HiBiT cell line
T1 sequence (Q07817 whole entry): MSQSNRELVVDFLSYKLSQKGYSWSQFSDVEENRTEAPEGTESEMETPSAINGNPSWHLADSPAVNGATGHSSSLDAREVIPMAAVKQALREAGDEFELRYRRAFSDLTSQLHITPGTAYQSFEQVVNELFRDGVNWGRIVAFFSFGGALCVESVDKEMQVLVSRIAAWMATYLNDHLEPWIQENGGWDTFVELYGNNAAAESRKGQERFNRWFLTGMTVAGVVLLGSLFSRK
How it was run: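 NCI-H1650 cells expressing HiBiT-tagged BCL-xL (5000/well) were treated overnight at 37° C with 10 concentrations, final 0.508 nM-10 μM, in triplicate. Remaining BCL-xL measured by Nano-Glo HiBiT lytic luminescence, normalized to untreated cells; 50% values by four-parameter logistic fit.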

Bcl-xL = target: T2, Bcl-xL (Homo sapiens, UniProt Q07817); experiment: HCT116 Bcl-xL degradation, capillary-based immunoassay (WES); details: HCT116, 24 h, 9-point serial dilution
T2 construct: Measured levels of Bcl-xL protein of HCT116 cells treated with the tested compounds; host or cells: HCT116
T2 sequence (Q07817 whole entry): as above
How it was run: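 HCT116 cells treated 24 h with compound at 10/100 nM and/or 9-point dilution (quadruplicates), then lysed. Bcl-xL measured by capillary WES immunoassay, normalized to cofilin and expressed as % of untreated cells. DC50 from four-parameter curve fit.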

GI50 [1] [nM]	IC50 (MOLT-4 cells) [nM]	DC50 (HiBiT-tagged BCL-xL) [nM]	DC50 (Bcl-xL) [nM]	Structure (SMILES)
2	7.19	1	0.564	Cc1ncsc1-c1ccc([C@H](C)NC(=O)[C@@H]2C[C@@H](O)CN2C(=O)[C@@H](NC(=O)CCCCCCCCCN2CCN(CC#Cc3ccc(OCCCc4sc(N5CCCc6c5nnc(Nc5nc7ccccc7s5)c6C)nc4C(=O)O)c(F)c3)CC2)C(C)(C)C)cc1 [Example 134, 2-[3-(1,3-benzothiazol-2-ylamino)-4-methyl-6,7-dihydro-5H-pyrido[2,3-c]pyridazin-8-yl]-5-[3-[2-fluoro-4-[3-[4-[10-[[(1S)-1-[(2S,4R)-4-hydroxy-2-[[(1S)-1-[4-(4-methylthiazol-5-yl)phenyl]ethyl]carbamoyl]pyrrolidine-1-carbonyl]-2,2-dimethyl-propyl]amino]-10-oxo-decyl]piperazin-1-yl]prop-1-ynyl]phenoxy]propyl]thiazole-4-carboxylic acid]
1	2.41	2	2.17	Cc1ncsc1-c1ccc([C@H](C)NC(=O)[C@@H]2C[C@@H](O)CN2C(=O)[C@@H](NC(=O)CCCCCCCCCCCCCCCCN(C)CCOC23CC4(C)CC(C)(CC(Cn5ncc(-c6ccc(N7CCCc8c7nnc(Nc7nc9ccccc9s7)c8C)nc6C(=O)O)c5C)(C4)C2)C3)C(C)(C)C)cc1 [Example 145, 6-[3-(1,3-benzothiazol-2-ylamino)-4-methyl-6,7-dihydro-5H-pyrido[2,3-c]pyridazin-8-yl]-3-[1-[[3-[2-[[17-[[(1S)-1-[(2S,4R)-4-hydroxy-2-[[(1S)-1-[4-(4-methylthiazol-5-yl)phenyl]ethyl]carbamoyl]pyrrolidine-1-carbonyl]-2,2-dimethyl-propyl]amino]-17-oxo-heptadecyl]-methyl-amino]ethoxy]-5,7-dimethyl-1-adamantyl]methyl]-5-methyl-pyrazol-4-yl]pyridine-2-carboxylic acid]
3	3	> 1670	0.986	Cc1ncsc1-c1ccc(CNC(=O)[C@@H]2C[C@@H](O)CN2C(=O)[C@@H](NC(=O)C2(F)CC2)C(C)(C)C)c(OCCCCCCCCCCCCCCN(C)CCOC23CC4(C)CC(C)(CC(Cn5ncc(-c6ccc(N7CCCc8c7nnc(Nc7nc9ccccc9s7)c8C)nc6C(=O)O)c5C)(C4)C2)C3)c1 [Example 146, 6-[3-(1,3-benzothiazol-2-ylamino)-4-methyl-6,7-dihydro-5H-pyrido[2,3-c]pyridazin-8-yl]-3-[1-[[3-[2-[14-[2-[[[(2S,4R)-1-[(2S)-2-[(1-fluorocyclopropanecarbonyl)amino]-3,3-dimethyl-butanoyl]-4-hydroxy-pyrrolidine-2-carbonyl]amino]methyl]-5-(4-methylthiazol-5-yl)phenoxy]tetradecyl-methyl-amino]ethoxy]-5,7-dimethyl-1-adamantyl]methyl]-5-methyl-pyrazol-4-yl]pyridine-2-carboxylic acid]
7	4.51	1	1.37	Cc1ncsc1-c1ccc([C@H](C)NC(=O)[C@@H]2C[C@@H](O)CN2C(=O)[C@@H](NC(=O)CCCCCCCCCCCCCN(C)CCOC23CC4(C)CC(C)(CC(Cn5ncc(-c6ccc(N7CCCc8c7nnc(Nc7nc9ccccc9s7)c8C)nc6C(=O)N(C)C)c5C)(C4)C2)C3)C(C)(C)C)cc1 [Example 148, 6-[3-(1,3-benzothiazol-2-ylamino)-4-methyl-6,7-dihydro-5H-pyrido[2,3-c]pyridazin-8-yl]-3-[1-[[3-[2-[[14-[[(1S)-1-[(2S,4R)-4-hydroxy-2-[[(1S)-1-[4-(4-methylthiazol-5-yl)phenyl]ethyl]carbamoyl]pyrrolidine-1-carbonyl]-2,2-dimethyl-propyl]amino]-14-oxo-tetradecyl]-methyl-amino]ethoxy]-5,7-dimethyl-1-adamantyl]methyl]-5-methyl-pyrazol-4-yl]-N,N-dimethyl-pyridine-2-carboxamide]
222	6.59	> 1670	10.3	Cc1ncsc1-c1ccc([C@H](C)NC(=O)[C@@H]2C[C@@H](O)CN2C(=O)[C@@H](NC(=O)CCCCCCCCCCCCCN(C)CCOC23CC4(C)CC(C)(CC(Cn5ncc(-c6ccc(N7CCCc8c7nnc(Nc7nc9ccccc9s7)c8C)nc6C(N)=O)c5C)(C4)C2)C3)C(C)(C)C)cc1 [Example 154, 6-[3-(1,3-benzothiazol-2-ylamino)-4-methyl-6,7-dihydro-5H-pyrido[2,3-c]pyridazin-8-yl]-3-[1-[[3-[2-[[14-[[(1S)-1-[(2S,4R)-4-hydroxy-2-[[(1S)-1-[4-(4-methylthiazol-5-yl)phenyl]ethyl]carbamoyl]pyrrolidine-1-carbonyl]-2,2-dimethyl-propyl]amino]-14-oxo-tetradecyl]-methyl-amino]ethoxy]-5,7-dimethyl-1-adamantyl]methyl]-5-methyl-pyrazol-4-yl]pyridine-2-carboxamide]
27	6.48	228	14.5	CNC(=O)c1nc(N2CCCc3c2nnc(Nc2nc4ccccc4s2)c3C)ccc1-c1cnn(CC23CC4(C)CC(C)(C2)CC(OCCN(C)CCCCCCCCCCCCCC(=O)N[C@H](C(=O)N2C[C@H](O)C[C@H]2C(=O)N[C@@H](C)c2ccc(-c5scnc5C)cc2)C(C)(C)C)(C4)C3)c1C [Example 156, 6-[3-(1,3-benzothiazol-2-ylamino)-4-methyl-6,7-dihydro-5H-pyrido[2,3-c]pyridazin-8-yl]-3-[1-[[3-[2-[[14-[[(1S)-1-[(2S,4R)-4-hydroxy-2-[[(1S)-1-[4-(4-methylthiazol-5-yl)phenyl]ethyl]carbamoyl]pyrrolidine-1-carbonyl]-2,2-dimethyl-propyl]amino]-14-oxo-tetradecyl]-methyl-amino]ethoxy]-5,7-dimethyl-1-adamantyl]methyl]-5-methyl-pyrazol-4-yl]-N-methyl-pyridine-2-carboxamide]
